Measurements as given in paper PMC7957578, “N-(1,3,4-Oxadiazol-2-yl)Benzamides as Antibacterial Agents against Neisseria gonorrhoeae” (International Journal of Molecular Sciences, 2021).
In brackets after ≈: the same amount, converted by molar mass. Read-outs that look alike come from different tables or passages of the source.

Columns and labels:
[1] = system: S. aureus ATCC 25923; experiment: MIC/MBC (CLSI broth microdilution) against S. aureus ATCC 25923; assay type: cell-based; settings: Staphylococcus aureus, ATCC25923
Description: (§1) The minimum inhibitory concentrations (MICs) of the tested compounds and control drugs, linezolid, vancomycin, and gentamicin, were determined using the broth microdilution method according to the guidelines outlined by the Clinical and Laboratory Standards Institute (CLSI) against clinically relevant bacterial (Staphylococcus aureus, MRSA, Escherichia coli, Enterococcus faecalis and Enterococcus faecium strains. S. aureus, MRSA, E. coli, Enterococcus faecalis and Enterococcus faecium were grown aerobically overnight on tryptone soy agar (TSA) plates at 37° C. Afterwards, a bacterial solution equivalent to 0.5 McFarland standard was prepared and diluted in cation-adjusted Mueller–Hinton broth (CAMHB) (for S. aureus, MRSA, and E. coli) to achieve a bacterial concentration of about 5 × 10^5 CFU/mL. Enterococcus faecalis and Enterococcus faecium 0.5 McFarland standard solution was diluted in tryptone soy broth (TSB) to achieve a bacterial concentration of about 5 × 10^5 CFU/mL. Compounds and control drugs were added in the first row of 96-well plates and serially diluted with the corresponding media containing bacteria. Plates were then incubated as previously described. […] The minimum bactericidal concentration (MBC) was tested by spotting 4 µL from wells with no growth onto TSA plates. Plates were incubated at 37 ° C for at least 18 h before recording the MBC. The MBC was categorized as the lowest concentration that reduced bacterial growth by 99.9% [45, 46, 47].

[2] = system: VRE. faecalisATCC 51575; experiment: MIC/MBC (CLSI broth microdilution) against VRE faecalis ATCC 51575; assay type: cell-based; settings: Enterococcus
Description: as §1

[3] = system: E. faecalis ATCC 29212; experiment: MIC/MBC (CLSI broth microdilution) against E. faecalis ATCC 29212; assay type: cell-based; settings: Enterococcus faecalis, ATCC29212
Description: as §1

[4] = system: VRE. faecalis ATCC 51299; experiment: MIC/MBC (CLSI broth microdilution) against VRE faecalis ATCC 51299; assay type: cell-based; settings: Enterococcus
Description: as §1

[5] = system: VRE. faecium ATCC 700221; experiment: MIC/MBC (CLSI broth microdilution) against VRE faecium ATCC 700221; assay type: cell-based; settings: Enterococcus
Description: as §1

[6] = system: E. coli JW55031 (TolC Mutant); experiment: MIC/MBC (CLSI broth microdilution) against E. coli TolC mutant; assay type: cell-based; settings: Escherichia coli
Description: as §1

[7] = system: MRSA USA300; experiment: MIC/MBC (CLSI broth microdilution) against MRSA USA300; assay type: cell-based, methicillin-resistant Staphylococcus aureus; settings: Staphylococcus aureus
Description: as §1

[8] = system: L. monocytogenes ATCC 19115; experiment: MIC/MBC (CLSI broth microdilution) against L. monocytogenes ATCC 19115; assay type: cell-based; settings: Listeria monocytogenes, ATCC19115
[9] = system: E. coli BW25113 (wild-type strain); experiment: MIC/MBC (CLSI broth microdilution) against E. coli BW25113 wild type; assay type: cell-based, Escherichia coli; settings: Escherichia coli
Description: as §1

[10] = system: N. gonorrhoeae 197; experiment: MIC/MBC against N. gonorrhoeae clinical isolate 197; assay type: cell-based; settings: Neisseria gonorrhoeae
Description: (§2) Briefly, bacteria were grown overnight on chocolate agar II at 37° C in the presence of 5% CO2. Afterwards, a bacterial suspension equivalent to 1.0 McFarland standard was prepared and diluted in brucella broth supplemented with yeast extract, neopeptone, hematin, pyridoxal, and NAD. Test agents were added in the first row of the 96-well plates and serially diluted along the plates. Plates were then incubated at 37° C in the presence of 5% CO2 for 24 h. […] Plates were then incubated at 37 ° C in the presence of 5% CO2 for 24 h. The MBC was categorized as the lowest concentration that reduced bacterial growth by 99.9% [45, 46, 47].

[11] = system: N. gonorrhoeae 194; experiment: MIC/MBC against N. gonorrhoeae clinical isolate 194; assay type: cell-based; settings: Neisseria gonorrhoeae
Description: as §2

[12] = system: N. gonorrhoeae WHO L; experiment: MIC/MBC against N. gonorrhoeae WHO L reference strain; assay type: cell-based; settings: Neisseria gonorrhoeae
Description: as §2

[13] = system: N. gonorrhoeae strain 181; experiment: MIC by broth microdilution against N. gonorrhoeae strain 181; assay type: cell-based, Neisseria gonorrhoeae; settings: Neisseria gonorrhoeae; N. gonorrhoeae strain 181; read-out: MIC
Description: as §2

[14] = system: N. gonorrhoeae 200; experiment: MIC/MBC against N. gonorrhoeae clinical isolate 200; assay type: cell-based; settings: Neisseria gonorrhoeae
Description: as §2

[15] = system: N. gonorrhoeae 166; experiment: MIC/MBC against N. gonorrhoeae clinical isolate 166; assay type: cell-based; settings: Neisseria gonorrhoeae
Description: as §2

[16] = system: N. gonorrhoeae 165; experiment: MIC/MBC against N. gonorrhoeae clinical isolate 165; assay type: cell-based; settings: Neisseria gonorrhoeae
Description: as §2

Molecule `CC(=O)NC[C@H]1CN(c2ccc(N3CCOCC3)c(F)c2)C(=O)O1` [Linezolid, linezolid, reference compound] has an MBC ([1]; S. aureus ATCC 25923, read-out: MBC) of 64 µg/mL (≈ 190 µM), an MIC ([1]; S. aureus ATCC 25923, read-out: MIC) of 2 µg/mL (≈ 5.93 µM) and an MBC ([2]; VRE faecalis ATCC 51575, read-out: MBC) of 64 µg/mL (≈ 190 µM). It also gave an MIC ([2]; VRE faecalis ATCC 51575, read-out: MIC) of 2 µg/mL (≈ 5.93 µM), an MBC ([3]; E. faecalis ATCC 29212, read-out: MBC) of 64 µg/mL (≈ 190 µM) and an MIC ([3]; E. faecalis ATCC 29212, read-out: MIC) of 2 µg/mL (≈ 5.93 µM). It also gave an MBC ([4]; VRE faecalis ATCC 51299, read-out: MBC) of 32 µg/mL (≈ 94.9 µM), an MIC ([4]; VRE faecalis ATCC 51299, read-out: MIC) of 1 µg/mL (≈ 2.96 µM) and an MBC ([5]; VRE faecium ATCC 700221, read-out: MBC) of 64 µg/mL (≈ 190 µM). The MIC ([5]; VRE faecium ATCC 700221, read-out: MIC) was 2 µg/mL (≈ 5.93 µM), the MBC [6] was over 64 µg/mL and the MIC [6] was 8 µg/mL (≈ 23.7 µM). The MBC ([7]; MRSA USA300, read-out: MBC) was 16 µg/mL (≈ 47.4 µM), the MIC ([7]; MRSA USA300, read-out: MIC) was 1 µg/mL (≈ 2.96 µM) and the MBC ([8]; L. monocytogenes ATCC 19115, read-out: MBC) was 64 µg/mL (≈ 190 µM). It also gave an MIC ([8]; L. monocytogenes ATCC 19115, read-out: MIC) of 2 µg/mL (≈ 5.93 µM), an MBC ([9]; E. coli BW25113 wild-type strain, read-out: MBC) of over 64 µg/mL and an MIC ([9]; E. coli BW25113 wild-type strain, read-out: MIC) of over 64 µg/mL.
With `CN(C)[C@@H]1C(O)=C(C(N)=O)C(=O)[C@@]2(O)C(O)=C3C(=O)c4c(O)cccc4[C@@](C)(O)[C@H]3C[C@@H]12` [Tetracycline, tetracycline, reference compound] the MBC [10] was 4 µg/mL (≈ 9 µM), the MIC [10] was 2 µg/mL (≈ 4.5 µM) and the MBC [11] was 4 µg/mL (≈ 9 µM). It also gave an MIC [11] of 1 µg/mL (≈ 2.25 µM), an MBC [12] of 2 µg/mL (≈ 4.5 µM) and an MIC [12] of 0.5 µg/mL (≈ 1.13 µM). It also gave an MIC [13] of 2 µg/mL (≈ 4.5 µM), an MBC [14] of 8 µg/mL (≈ 18 µM) and an MIC [14] of 2 µg/mL (≈ 4.5 µM). It also gave an MBC [15] of 8 µg/mL (≈ 18 µM), an MIC [15] of 2 µg/mL (≈ 4.5 µM) and an MBC [16] of 8 µg/mL (≈ 18 µM). It also gave an MIC [16] of 4 µg/mL (≈ 9 µM).
For `CN[C@H](CC(C)C)C(=O)N[C@H]1C(=O)N[C@@H](CC(N)=O)C(=O)N[C@H]2C(=O)N[C@H]3C(=O)N[C@H](C(=O)N[C@H](C(=O)O)c4cc(O)cc(O)c4-c4cc3ccc4O)[C@H](O)c3ccc(c(Cl)c3)Oc3cc2cc(c3O[C@@H]2O[C@H](CO)[C@@H](O)[C@H](O)[C@H]2O[C@H]2C[C@](C)(N)[C@H](O)[C@H](C)O2)Oc2ccc(cc2Cl)[C@H]1O` [Vancomycin, vancomycin, reference compound], the MBC [1] was 1 µg/mL (≈ 0.69 µM), the MIC [1] was 1 µg/mL (≈ 0.69 µM) and the MBC [2] was over 64 µg/mL. For the same molecule, the MIC [2] was over 64 µg/mL, the MBC [3] was 1 µg/mL (≈ 0.69 µM) and the MIC [3] was 1 µg/mL (≈ 0.69 µM). The MBC [4] was over 64 µg/mL, the MIC [4] was over 64 µg/mL and the MBC [5] was 32 µg/mL (≈ 22.1 µM). It also gave an MIC [5] of 32 µg/mL (≈ 22.1 µM), an MBC [6] of over 64 µg/mL and an MIC [6] of over 64 µg/mL. It also gave an MBC [7] of 2 µg/mL (≈ 1.38 µM), an MIC [7] of 1 µg/mL (≈ 0.69 µM) and an MBC [8] of 1 µg/mL (≈ 0.69 µM). It also gave an MIC [8] of 1 µg/mL (≈ 0.69 µM), an MBC ([9]; BW25113) of over 64 µg/mL and an MIC ([9]; BW25113) of over 64 µg/mL.
